Reference: patent US4405643A, “Treatment of acute pulmonary edema with arginine esters” (Italfarmaco S.p.A., priority 1979, dated 1983)
Counter-ions that a name gives are not always drawn.

Columns and labels:
[1] = Protection against pulmonary edema (adrenaline-induced acute edema of the lungs); assay type: in vivo, male albino rats of Wistar type; details: parenteral, 15 min before adrenaline
Description: The method of A. M. Rothschild and A. Castania (Arch. Pharmacol., 295, 177 (1976)), has been used to develop the acute edema in the lungs and substances of known therapeutic activity have been used for comparison purpose.
For the test, male albino rats of Wistar type of average weight 250-350 grams, have been used for the test. The rats were stabilized for a period of ten days at a temperature of 21°±1° C., under conditions of controlled diet and water "ad libitum". Prior to the test, the animals were divided into groups of ten for the purpose of achieving good randomization. Each dose was tried on three groups of animals. The animals were anesthetized with pentobarbital in a dose of 30 mg/kg at the beginning of the test. After the animals were in complete narcosis, the following substances were administered by the parenteral route:
1. to the animals as controls, physiological saline solution in the amount of 1 ml/kg,
2. to the animals in the test, a solution of the substance being tested in physiological saline solution in the amount of 1 ml/kg in the doses reported hereinbelow in the table.
After a period of 15 minutes, for the purpose of determining the protective activity of the substances, adrenaline was administered in the amount of 16 γ/kg by the endovenous route and in physiological saline solution, for the purpose of causing acute edema.
After five minutes, the animals were killed by removal of the head, the lungs were removed and the weight of the lungs were determined. The results of the test are reported in Table 1 hereinbelow, together with the concentration of the substances and the relative inhibition of edema in percent.

[2] = Protection against shock caused by endotoxins (lipopolysaccharide B from S. Enteritidis); assay type: in vivo, male rats of Wistar type; details: parenteral, 1 h before endotoxin, after 24 h
From the text: Endotoxin-induced shock has been produced according to the method reported by A. Bertelli and L. Donati, in the publication "The Influence of Some Enzymes and Enzymes Inhibitors in Shock", published in "SHOCK Biochemical,Pharmaceutical and Clinical Aspects"; A. Bertelli and N. Back Editors, Advances in Experimental Medicine and Biology; Volume 9, Plenum Press New York - London 1970, page 215. By way of comparison, there has been used a substance of well known therapeutical activity, specifically aprotinine, the commercial products marketed by Farbenfabriken Bayer, under the name "Trasylol". Male rats of Wistar type of 120 grams by weight ±10 have been used. The rats were previously stabilized for a period of ten days at a temperature of 21°±1° C. under a controlled diet and water "ad libitum". Twenty-four hours prior to the test, the animals were divided in groups of ten for the purpose of achieving randomization. Every single dose has been tried on six groups of animals.
Lipopolysaccharide B from S. Enteritidis (Difco Labs.) was used as the endotoxin. This substance was administered in the dose of 10 mg/kg by the endoperitoneal route, one hour after administration of the substance being administered by the parenteral route or in the form of a physiological solution in equal volume per kilogram to the animals being used as control.
The mortality in percent was determined in the animals being tested as compared with the controls after twenty-four hours.

[3] = Protection against anaphylactic shock (horse serum); assay type: in vivo, male albino guinea pigs; details: parenteral, with horse serum challenge, after 12 h
Description: The anaphylactic shock has been induced according to the method of S. M. Feinberg, M. Pharmacol. Exp. Therapeut., 99, 195 (1950). There have been used male albino guinea pigs of average weight, 350±20 grams previously stabilized for a period of ten days at a temperature of 21°±1° C., under conditions of controlled diet and water "ad libitum". Three days before the beginning of the experiment, the animals are divided in groups of ten for the purpose of achieving good randomization. Each single dose has been tried on three groups of animals.
The sensitization has been carried out by administration of 1 ml/guinea pig through the endovenous route of horse serum, (whole serum, not treated with preservatives) diluted 1:10 in physiological saline solution. After 14 days, the solutions of the substances being tested and the samples of physiological solutions for use with the controls are administered through the parenteral route. Simultaneously, 1 ml/guinea pig of horse serum, undiluted is administered, this substance being used as the agent which prompts the anaphylaxis. The percentage of mortality is determined after 12 hours.

[4] = test system: Fibrin Degradation Products; test: Inhibition of hyperfibrinolysis caused by urokinase (F.D.P., staphylococcal clumping test); assay type: in vivo, Wistar rats; details: parenteral, 30 min before urokinase 2500 U.I/rat
Description: The induction of hyperfibrinolysis state is caused by administration of urokinase. The determination of the inhibition is carried out by determination of the F.D.P. value, that is Fibrin Degradation Products, according to the procedure of J. Hawiger et al, J. Lab. Clin. Med. 75, 93 (1970), by means of the staphylococcal clumping test (Boehringer Mannheim GmbH test).
There are used Wistar rats of 300 grams ±10 by weight previously stabilized for a period of ten days at a temperature of 21°±1° C., under conditions of controlled diet and water "ad libitum". Twenty-four hours prior to the beginning of the experiment, the animals are divided in groups of ten for the purpose of achieving randomization. Each individual dose is tried on three groups of animals.
At the beginning of the test, zero time, the compounds being tested are administered through the parenteral route. In the case of the control animals, at the same time an equal volume of a physiological saline solution is administered except that some blood is removed by means of a cardiac puncture, for the purpose of determining the basal fibrinolytic activity. After 30 minutes, human urokinase (the composition marketed by Ukidan-Serono) is administered intravenously in the amount of 2500 U.I/rat. After an additional period of ten minutes, blood is removed by means of a cardiac puncture for the final determination of F.D.P., a determination which is expressed in […].

Compound | % INHIBITION OF EDEMA ([1]; dose 1 mg/kg) | % INHIBITION OF EDEMA ([1]; dose 2.5 mg/kg) | % INHIBITION OF EDEMA ([1]; dose 5 mg/kg) | % INHIBITION OF EDEMA ([1]; dose 10 mg/kg) | % INHIBITION OF EDEMA ([1]; dose 20 mg/kg) | % MORTALITY ([2]; dose 5 mg/kg) | % MORTALITY ([2]; dose 10 mg/kg) | % MORTALITY ([2]; dose 20 mg/kg) | % MORTALITY ([2]; dose 50 mg/kg) | % MORTALITY ([3]; dose 10 mg/kg) | % MORTALITY ([3]; dose 20 mg/kg) | % MORTALITY ([3]; dose 50 mg/kg) | F.D.P. ([4]; dose 5 mg/kg) | F.D.P. ([4]; dose 10 mg/kg) | F.D.P. ([4]; dose 20 mg/kg) | also measured
CC(=O)Oc1ccccc1C(=O)O [Aspirin] | 32.2% | 36.9% | 48.2% | 54.3% | 19.6% | – | – | – | – | – | – | – | – | – | – | –
CCOC(=O)[C@H](N)CCCNC(=N)N [D-A.E., DArginine ethyl ester hydrochloride] | 4.2% | 7% | 5.3% | 6% | 2.5% | 72% | 67% | 69.3% | 71% | 76.7% | 79.4% | 81.0% | 3.20 milliliters | 3.16 milliliters | 3.19 milliliters | % INHIBITION OF EDEMA ([1]; dose 0.1 mg/kg): 7%; % INHIBITION OF EDEMA ([1]; dose 0.25 mg/kg): 11%; % INHIBITION OF EDEMA ([1]; dose 0.5 mg/kg): 3%
COC(=O)[C@H](N)CCCNC(=N)N [D-A.M., DArginine methyl ester hydrochloride] | 16.8% | 11.7% | 15.4% | 4.4% | 6.4% | 71.2% | 68.5% | 69% | 73% | 78.8% | 81.0% | 76.3% | 3.10 milliliters | 3.03 milliliters | 3.16 milliliters | –
CCO [Ethanol] | – | – | – | – | – | – | – | – | – | – | – | – | – | – | – | % INHIBITION OF EDEMA ([1]; dose 0.08 mg/kg): 7%; % INHIBITION OF EDEMA ([1]; dose 0.8 mg/kg): 12%; % INHIBITION OF EDEMA ([1]; dose 2 mg/kg): 15%; % INHIBITION OF EDEMA ([1]; dose 4 mg/kg): 14.7%; % INHIBITION OF EDEMA ([1]; dose 8 mg/kg): 16%; % INHIBITION OF EDEMA ([1]; dose 16 mg/kg): 15.9%; % MORTALITY ([2]; dose 2 mg/kg): 67%; % MORTALITY ([2]; dose 4 mg/kg): 69%; % MORTALITY ([2]; dose 8 mg/kg): 73%; % MORTALITY ([3]; dose 2 mg/kg): 76.4%; % MORTALITY ([3]; dose 4 mg/kg): 74%; % MORTALITY ([3]; dose 8 mg/kg): 76.5%; F.D.P. ([4]; dose 2 mg/kg): 3.06 milliliters; F.D.P. ([4]; dose 4 mg/kg): 2.95 milliliters; F.D.P. ([4]; dose 8 mg/kg): 3.11 milliliters
CCOC(=O)[C@@H](N)CCCNC(=N)N [L-A.E., LArginine ethyl ester hydrochloride] | 55.7% | 47.9% | 41.0% | 38.9% | 39.7% | 51.3% | 48.2% | 37.5% | 25.0% | 35% | 23% | 9.5% | 0.50 milliliters | 0.33 milliliters | 0.27 milliliters | % INHIBITION OF EDEMA ([1]; dose 0.1 mg/kg): 3.4%; % INHIBITION OF EDEMA ([1]; dose 0.25 mg/kg): 32.2%; % INHIBITION OF EDEMA ([1]; dose 0.5 mg/kg): 33.3%
COC(=O)[C@@H](N)CCCNC(=N)N [L-A.M., LArginine methyl ester hydrochloride] | 21.2% | 27.4% | 29.0% | 55.7% | 15.7% | 55.0% | 50.0% | 40.0% | 28.0% | 40.5% | 27% | 12.5% | 0.48 milliliters | 0.30 milliliters | 0.25 milliliters | –
NC[C@H]1CC[C@H](C(=O)O)CC1 [Tranexamic Acid, trans4-(aminomethyl)cyclohexancarboxylic acid] | – | – | – | – | – | – | – | – | – | – | – | – | 0.58 milliliters | 0.39 milliliters | 0.33 milliliters | –
